According to patent publication US6352958B1, “Cycloimido-substituted benzofused heterocyclic herbicides” (FMC Corporation, priority 1997, dated 2002):

Tests used:
Type in all cases: in vivo
[1] = test system: common cocklebur (Xanthium strumarium L.); assay: Preemergence herbicidal activity, cocklebur; conditions: Rate of Application 0.3 Kg/Ha, examined after 12-17 days
[2] = test system: common chickweed (Stellaria media); assay: Postemergence herbicidal activity, chickweed; conditions: rate of application 0.3 Kg/Ha, rated after 12-17 days
[3] = test system: green foxtail (Setaria viridis); assay: Preemergence herbicidal activity, green foxtail; conditions: Rate of Application 0.3 Kg/Ha, examined after 12-17 days
[4] = test system: soybean (Glycine max var. Winchester); assay: Preemergence herbicidal activity, soybean; conditions: Rate of Application 0.3 Kg/Ha, examined after 12-17 days
[5] = test system: Johnsongrass (Sorghum halepense); assay: Postemergence herbicidal activity, johnsongrass; conditions: rate of application 0.3 Kg/Ha, rated after 12-17 days
[6] = test system: Johnsongrass (Sorghum halepense); assay: Preemergence herbicidal activity, johnsongrass; conditions: Rate of Application 0.3 Kg/Ha, examined after 12-17 days
[7] = test system: wheat (Triticum aestivum var. Lew); assay: Preemergence herbicidal activity, wheat; conditions: Rate of Application 0.3 Kg/Ha, examined after 12-17 days
[8] = test system: wheat (Triticum aestivum var. Lew); assay: Postemergence herbicidal activity, wheat; conditions: rate of application 0.3 Kg/Ha, rated after 12-17 days
[9] = test system: green foxtail (Setaria viridis); assay: Postemergence herbicidal activity, green foxtail; conditions: rate of application 0.3 Kg/Ha, rated after 12-17 days
[10] = test system: velvetleaf (Abutilon theophrasti); assay: Postemergence herbicidal activity, velvetleaf; conditions: rate of application 0.3 Kg/Ha, rated after 12-17 days
[11] = test system: common chickweed (Stellaria media); assay: Preemergence herbicidal activity, chickweed; conditions: Rate of Application 0.3 Kg/Ha, examined after 12-17 days
[12] = test system: field corn (Zea mays var. Pioneer 3732); assay: Preemergence herbicidal activity, corn; conditions: Rate of Application 0.3 Kg/Ha, examined after 12-17 days
[13] = test system: morningglory (Ipomea lacunosa or Ipomea hederacea); assay: Postemergence herbicidal activity, morningglory; conditions: rate of application 0.3 Kg/Ha, rated after 12-17 days
[14] = test system: blackgrass (Aloepecurus myosuroides); assay: Postemergence herbicidal activity, blackgrass; conditions: rate of application 0.3 Kg/Ha, rated after 12-17 days
[15] = test system: field corn (Zea mays var. Pioneer 3732); assay: Postemergence herbicidal activity, corn; conditions: rate of application 0.3 Kg/Ha, rated after 12-17 days
[16] = test system: common cocklebur (Xanthium strumarium L.); assay: Postemergence herbicidal activity, cocklebur; conditions: rate of application 0.3 Kg/Ha, rated after 12-17 days
[17] = test system: blackgrass (Aloepecurus myosuroides); assay: Preemergence herbicidal activity, blackgrass; conditions: Rate of Application 0.3 Kg/Ha, examined after 12-17 days
[18] = test system: soybean (Glycine max var. Winchester); assay: Postemergence herbicidal activity, soybean; conditions: rate of application 0.3 Kg/Ha, rated after 12-17 days
[19] = test system: velvetleaf (Abutilon theophrasti); assay: Preemergence herbicidal activity, velvetleaf; conditions: Rate of Application 0.3 Kg/Ha, examined after 12-17 days
[20] = test system: morningglory (Ipomea lacunosa or Ipomea hederacea); assay: Preemergence herbicidal activity, morningglory; conditions: Rate of Application 0.3 Kg/Ha, examined after 12-17 days

SMILES | PREEMERGENCE HERBICIDAL ACTIVITY (% CONTROL) XANPE [1] | Postemergence herbicidal activity (% control) STEME [2] | PREEMERGENCE HERBICIDAL ACTIVITY (% CONTROL) SETVI [3] | PREEMERGENCE HERBICIDAL ACTIVITY (% CONTROL) SOY [4] | Postemergence herbicidal activity (% control) SORHA [5] | PREEMERGENCE HERBICIDAL ACTIVITY (% CONTROL) SORHA [6] | PREEMERGENCE HERBICIDAL ACTIVITY (% CONTROL) WHT [7] | Postemergence herbicidal activity (% control) WHT [8] | Postemergence herbicidal activity (% control) SETVI [9] | Postemergence herbicidal activity (% control) ABUTH [10] | PREEMERGENCE HERBICIDAL ACTIVITY (% CONTROL) STEME [11] | PREEMERGENCE HERBICIDAL ACTIVITY (% CONTROL) CRN [12] | Postemergence herbicidal activity (% control) IPOSS [13] | Postemergence herbicidal activity (% control) ALOMY [14] | Postemergence herbicidal activity (% control) CRN [15] | Postemergence herbicidal activity (% control) XANPE [16] | PREEMERGENCE HERBICIDAL ACTIVITY (% CONTROL) ALOMY [17] | Postemergence herbicidal activity (% control) SOY [18] | PREEMERGENCE HERBICIDAL ACTIVITY (% CONTROL) ABUTH [19] | PREEMERGENCE HERBICIDAL ACTIVITY (% CONTROL) IPOSS [20]
CCCC(C)c1cc2c(Cl)cc(F)c(-n3c(=O)cc(C(F)(F)F)n(C)c3=O)c2o1 (centres unmarked) [Compound 229] | 95% | 100% | 100% | 100% | 100% | 100% | 70% | 60% | 100% | 100% | 100% | 90% | 100% | 70% | 80% | 100% | 80% | 95% | 100% | 100%
CCOC(=O)c1cc2cccc(-n3c(=O)cc(C(F)(F)F)n(C)c3=O)c2o1 [Compound 267] | 50% | 10% | 5% | 0% | 20% | 0% | 10% | 15% | 30% | 80% | 0% | 20% | 40% | 20% | 50% | 10% | 50% | 50% | 10% | 10%
Cn1c(C(F)(F)F)cc(=O)n(-c2c(F)cc(Cl)c3nc(-c4ccccc4)[nH]c23)c1=O [Compound 375] | 80% | 100% | 100% | 80% | 100% | 95% | 30% | 40% | 80% | 100% | 95% | 90% | 95% | 90% | 90% | 100% | 80% | 95% | 100% | 80%
C=Cc1cc2c(Cl)cc(F)c(-n3c(=O)cc(C(F)(F)F)n(C)c3=O)c2o1 [Compound 230] | 100% | 90% | 100% | 100% | 90% | 100% | 40% | 40% | 100% | 100% | 100% | 80% | 100% | 70% | 80% | 100% | 80% | 95% | 100% | 100%
